Data: patent US20250221410A1, “SUBSTITUTED 2-C-AZINES AND SALTS THEREOF, AND USE THEREOF AS HERBICIDAL ACTIVE SUBSTANCES” (BAYER AKTIENGESELLSCHAFT, priority 2022, published 2025)

Experiments:
[1] = test system: ALOMY: Alopecurus myosuroides; assay: Post-emergence herbicidal efficacy at 1280 g/ha, ALOMY; type: in vivo; conditions: rated visually after about 3 weeks vs untreated controls, 100% = plants have died, 0% = like control plants
Outline: (§1)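 Weeds grown in sandy loam in the greenhouse were sprayed at the one-leaf stage, 2 to 3 weeks after sowing, with WP or EC formulations in water plus 0.5% additive at 600 L/ha. Damage was scored visually about 3 weeks later against untreated controls (0% = like control, 100% = plants dead).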

[2] = test system: AMARE: Amaranthus retroflexus; assay: Post-emergence herbicidal efficacy at 1280 g/ha, AMARE; type: in vivo; conditions: rated visually after about 3 weeks vs untreated controls, 100% = plants have died, 0% = like control plants
Outline: as §1

KCHSC: Kochia scoparia [3] = assay: Post-emergence herbicidal efficacy at 1280 g/ha, KCHSC; type: in vivo; conditions: visual rating about 3 weeks after treatment vs untreated controls
Outline: as §1

POAAN: Poa annua [4] = assay: Post-emergence herbicidal efficacy at 1280 g/ha, POAAN; type: in vivo; conditions: visual rating about 3 weeks after treatment vs untreated controls
Outline: as §1

SETVI: Setaria viridis = assay: Post-emergence herbicidal efficacy at 1280 g/ha, SETVI; type: in vivo; conditions: visual rating about 3 weeks after treatment vs untreated controls
Outline: as §1

POLCO = assay: Post-emergence herbicidal efficacy at 80 g/ha, POLCO; type: in vivo, Polygonum convolvulus; conditions: visual rating about 3 weeks after treatment vs untreated controls
Experimental: (§2) Seeds of monocotyledonous and dicotyledonous weeds and crop plants were placed in sandy loam in plastic or organic planting pots, covered with soil and cultivated in a greenhouse under controlled growth conditions. 2 to 3 weeks after sowing, the test plants were treated at the one-leaf stage. The compounds of the invention, formulated in the form of wettable powders (WP) or as emulsion concentrates (EC), were then sprayed onto the green parts of the plants as aqueous suspension or emulsion with addition of 0.5% additive at a water application rate of 600 l/ha (converted). After the test plants had been kept in the greenhouse under optimum growth conditions for about 3 weeks, the activity of the preparations was rated visually in comparison to untreated controls. For example, 100% activity=the plants have died, 0% activity=like control plants. Tables B1 to B10 below show the effects of selected compounds of the general formula (I) according to Table 1 on various harmful plants and an application rate corresponding to 80 g/ha, which were obtained by the experimental procedure mentioned above.

[5] = test system: ALOMY: Alopecurus myosuroides; assay: Pre-emergence herbicide efficacy at 1280 g/ha, ALOMY; type: in vivo; conditions: visual scoring after about 3 weeks vs untreated controls
Outline: (§3)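 Seeds sown in sandy loam in pots and covered; compounds as WP or EC applied to covering soil surface as aqueous suspension/emulsion with 0.5% additive at 600 L/ha water. Greenhouse growth ~3 weeks, then visual % efficacy vs untreated controls (100% = plants dead, 0% = like control).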

[6] = test system: DIGSA: Digitaria sanguinalis; assay: Pre-emergence herbicide efficacy at 1280 g/ha, DIGSA; type: in vivo; conditions: visual scoring after about 3 weeks vs untreated controls
Outline: as §3

POAAN: Poa annua [7] = assay: Pre-emergence herbicide efficacy at 1280 g/ha, POAAN; type: in vivo; conditions: visual scoring after about 3 weeks vs untreated controls
Outline: as §3

[8] = test system: ABUTH: Abutilon theophrasti; assay: Pre-emergence herbicide efficacy at 80 g/ha, ABUTH; type: in vivo; conditions: scored visually after about 3 weeks
Outline: (§4)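 Weed seeds sown in pots and covered with soil; compounds formulated as WP or EC were sprayed onto the soil surface as aqueous suspension/emulsion with 0.5% additive at 600 l/ha water. Pots kept in greenhouse; efficacy scored visually after about 3 weeks versus untreated controls (0% = like control, 100% = plants dead).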

[9] = test system: ALOMY: Alopecurus myosuroides; assay: Pre-emergence herbicide efficacy at 80 g/ha, ALOMY; type: in vivo; conditions: scored visually after about 3 weeks
From the text: (§5) Seeds of monocotyledonous and dicotyledonous weed plants and crop plants were placed in plastic or organic planting pots and covered with soil. The compounds of the invention, formulated in the form of wettable powders (WP) or as emulsion concentrates (EC), were then applied to the surface of the covering soil as aqueous suspension or emulsion with addition of 0.5% additive at a water application rate equivalent to 600 l/ha. After the treatment, the pots were placed in a greenhouse and kept under good growth conditions for the test plants. After about 3 weeks, the efficacy of the preparations was scored visually in comparison with untreated controls as percentages. For example, 100% activity=the plants have died, 0% activity=like control plants. Tables D1 to D12 below show the effects of selected compounds of the general formula (I) according to Table 1 on various harmful plants and an application rate corresponding to 80 g/ha, which were obtained by the experimental procedure mentioned above.

[10] = test system: AMARE: Amaranthus retroflexus; assay: Pre-emergence herbicide efficacy at 80 g/ha, AMARE; type: in vivo; conditions: scored visually after about 3 weeks
Outline: as §4

KCHSC: Kochia scoparia [11] = assay: Pre-emergence herbicide efficacy at 80 g/ha, KCHSC; type: in vivo; conditions: scored visually after about 3 weeks
From the text: as §5

VIOTR: Viola tricolor = assay: Pre-emergence herbicide efficacy at 80 g/ha, VIOTR; type: in vivo; conditions: scored visually after about 3 weeks
From the text: as §5

LOLRI: Lolium rigidum = assay: Post-emergence herbicidal efficacy at 1280 g/ha, LOLRI; type: in vivo; conditions: visual rating about 3 weeks after treatment vs untreated controls
Outline: as §1

[12] = test system: ABUTH: Abutilon theophrasti; assay: Post-emergence herbicidal efficacy at 80 g/ha, ABUTH; type: in vivo; conditions: rated visually after about 3 weeks vs untreated controls, 100% = plants have died, 0% = like control plants
Experimental: as §2

[13] = test system: MATIN: Matricaria inodora; assay: Post-emergence herbicidal efficacy at 1280 g/ha, MATIN; type: in vivo; conditions: visual rating about 3 weeks after treatment vs untreated controls
Experimental: Seeds of mono- and dicotyledonous weed plants were placed in plastic pots in sandy loam soil (doubly sown with in each case one species of mono- or dicotyledonous weed plants per pot), covered with soil and cultivated in a greenhouse under controlled growth conditions. 2 to 3 weeks after sowing, the test plants were treated at the one-leaf stage. The compounds of the invention, formulated in the form of wettable powders (WP) or as emulsion concentrates (EC), were applied to the green parts of the plants as aqueous suspension or emulsion with addition of 0.5% additive at a water application rate equivalent to 600 litres per hectare. After the test plants had been kept in the greenhouse under optimum growth conditions for about 3 weeks, the activity of the preparations was rated visually in comparison to untreated controls. For example, 100% activity=the plants have died, 0% activity=like control plants. Tables A1 to A12 below show the effects of selected compounds of the general formula (I) according to Table 1 on various harmful plants and at an application rate corresponding to 1280 g/ha, which were obtained by the trial procedure specified above.

Compound	Post-emergence efficacy at 1280 g/ha against ALOMY in % [1]	Post-emergence efficacy at 1280 g/ha against AMARE in % [2]	Post-emergence efficacy against KCHSC (KCHSC: Kochia scoparia [3])	Post-emergence efficacy against POAAN (POAAN: Poa annua [4])	Post-emergence efficacy against SETVI (SETVI: Setaria viridis)	Post-emergence efficacy against POLCO (POLCO)	Pre-emergence efficacy against ALOMY [5]	Pre-emergence efficacy against DIGSA [6]	Pre-emergence efficacy against POAAN (POAAN: Poa annua [7])	Pre-emergence efficacy against ABUTH in % [8]	Pre-emergence efficacy against ALOMY in % [9]	Pre-emergence efficacy against AMARE in % [10]	Pre-emergence efficacy against KCHSC in % (KCHSC: Kochia scoparia [11])	Pre-emergence efficacy against VIOTR in % (VIOTR: Viola tricolor)	Post-emergence efficacy against LOLRI (LOLRI: Lolium rigidum)	Post-emergence efficacy at 80 g/ha against ABUTH in % [12]	Post-emergence efficacy against MATIN [13]
Fc1cnc(Oc2cccc(Br)c2Cc2ncc(Cl)cn2)nc1 [Example 1-54]	90%	100%	100%	100%	100%	80%	90%	100%	100%	100%	80%	100%	100%	100%			
Clc1cnc(Cc2c(Cl)cccc2Oc2ncc(Cl)cn2)nc1 [Example 1-56]		90%	90%	90%	90%	80%	100%	100%	100%	100%		100%	90%	100%	90%		
FC(F)c1cc(-c2ccccc2Cc2ncc(Cl)cn2)on1 [Example 1-133]	90%	100%	100%	100%	100%	100%	100%	100%	100%	100%		100%	100%	80%	100%	80%	
N#Cc1cccc(Oc2ncc(F)cn2)c1Cc1ncc(Cl)cn1 [Example 1-59]		100%	100%	100%	90%		100%	100%	100%	100%	80%	100%	100%	100%			100%
